# Marks after values point to notes of the source that are not given here. Square brackets hold non-standard residues; d marks the D form. Peptide text beside a SMILES is read from it. * marks the point of attachment. Phe(4-amidino) = N=C(N)c1ccc(C[C@H](N)C(=O)O)cc1; Phe(4-Cl) = N[C@@H](Cc1ccc(Cl)cc1)C(=O)O; hArg = N=C(N)NCCCC[C@H](N)C(=O)O; Nle = CCCC[C@H](N)C(=O)O; Abu = CC[C@H](N)C(=O)O; PhAc = O=C(Cc1ccccc1)*
# How the values were obtained:
# pituitary = details: cited from earlier work
# GH secretion = details: cited from earlier work
# [1] = test system: rat anterior pituitary adenylate cyclase; details: cited from earlier work
# [2] = test system: hGH-RH(1-29)NH2 induced GH release; assay: Inhibition of GH release in superfused rat pituitary system; type: cell-based
# Method in brief: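 GH output was quantified by double-antibody RIA in superfusates of rat pituitary cells. Peptides were applied for 9 min at various concentrations before a 3-min 1 nM hGH-RH(1-29)NH2 pulse, with further pulses 30–120 min later; net integral responses given as percent of the original response.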
# IGF-I [3] = assay: DMS-153 human SCLC xenografts: serum IGF-I; type: in vivo, nude mice; details: 10 μg/day s.c., 6 weeks
# Excerpt: (§1) For the measurement of GH and IGF-I levels in the serum, as well as IGF-I and IGF-II concentrations in the cytosol fraction of tumors, blood samples and tumor samples were collected and processed as described (Braczkowski R, Schally A V, Plonowski A, Varga J L, Groot K, Krupa M, Armatis P, Cancer 95: 1735-1745, 2002), hereby incorporated by reference. Briefly, blood samples are centrifuged to separate the serum, tumors are homogenized and centrifuged to separate the cytosol fraction. Serum GH is then measured by the double-antibody RIA method. Before measurement by RIA, IGF-I and IGF-II are extracted from serum and cytosol fractions using an acid-ethanol cryoprecipitation method that eliminates most of the IGF binding proteins, which can interfere with the RIA. IGF-I concentration is measured by RIA using IGF-I as a standard and goat anti-IGF-I antibody (both from DSL Inc., Webster, Tex.). IGF-II concentration is measured by RIA using human recombinant IGF-II (Bachem) as a standard and anti-IGF-II monoclonal antibody (Amano International Enzyme, Troy, Va.).
# (§2) Male nude mice were implanted s.c. with 3 mm^3 pieces of DMS-153 human SCLC tissue. When tumors reached a volume of approx. 100 mm^3 the mice were divided into 3 experimental groups of 68 animals each and received the following treatment for 6 weeks group 1 (control), vehicle solution; group 2, Peptide 67 (10 μg/day s.c.); group 3, Peptide 31 (10 μg/day s.c.). Tumor volumes were recorded twice a week. At the end of treatment, mice were anesthetized with isoflurane, killed by decapitation, trunk blood was collected for measurement of serum IGF-I, and tumors were excised and weighed. Data are presented as means±S.E. Data were evaluated by one way ANOVA and the Student-Newman-Keuls test.
# IGF-I [4] = assay: PC-3 xenografts, Experiment 1: serum IGF-I (RIA); type: in vivo, nude mice; details: 10 μg/day s.c., 28 days
# Excerpt: as §1
# (§3) Male nude mice were implanted s.c. with 3 mm^3 pieces of PC-3 human hormone-independent prostate cancer tissue on both flanks. When tumors reached a volume of approx. 50 mm^3, the mice were divided into 5 experimental groups with 7 to 8 animals in each group and received single daily injections for 28 days as follows: 1. Control (vehicle solution); 2. JV-1-38 (10 μg/day s.c.); 3 Peptide 31 (10 μg/day s.c.); 4. Peptide 67 (10 μg/day s.c.); 5. Peptide 62 (10 μg/day s.c.). Tumor volumes were measured twice a week. The experiment was ended on day 29 by sacrificing the mice under Isoflurane anesthesia. Resulting tumors were cleaned, weighed, and snap-frozen until further analyses. Trunk blood was collected from the abdominal aorta and serum was separated for RIA measurement of IGF-I. Statistical analyses of the measurement results were done by two-tailed t-test; data are presented as the means±S.E.
# [5] = test system: DMS-153 human SCLC xenografts; assay: DMS-153 human SCLC xenografts in nude mice: tumor growth; type: in vivo
# Procedure: as §2
# IGF-II = assay: PC-3 xenografts, Experiment 1: tumor IGF-II (RIA); type: in vivo, nude mice; details: 10 μg/day s.c., 28 days
# Excerpt: as §1, §3
# [6] = test system: PC-3 human prostate cancer xenografts; assay: PC-3 xenografts in nude mice, Experiment 1: tumor growth; type: in vivo
# Procedure: as §3
# [7] = test system: H-69 human SCLC xenografts; assay: H-69 human SCLC xenografts in nude mice: tumor growth; type: in vivo; details: H-69
# Procedure: Male nude mice were implanted s.c. with 3 mm^3 pieces of H-69 human SCLC tissue. When tumors reached a volume of approx. 80 mm^3 the mice were divided into 4 experimental groups of 7-8 animals each and received the following treatment for 4 weeks: group I (control), vehicle solution; group 2, Peptide 67 (10 μg/day s.c.); group 3, Peptide 31 (10 μg/day s.c.); group 4, Peptide 72 (10 μg/day s.c.). Tumor volumes were recorded twice a week. At the end of treatment, mice were anesthetized with isoflurane, killed by decapitation, and tumors were excised and weighed. Data are presented as means±S.E. Data were evaluated by one way ANOVA and the Student-Newman-Keuls test.
# mRNA for IGF-II = assay: DMS-153 human SCLC xenografts: expression of mRNA for IGF-II; type: in vivo, nude mice; details: 10 μg/day s.c., 6 weeks, control group 100±1.5%
# Procedure: as §2
# [8] = 10 μg/day s.c., 6 weeks, vs control
# [9] = 10 μg/day s.c., 28 days, vs control
compound,measurement,setting,value
Tyr-Ala-Asp-Ala-Ile^5-Phe-Thr-Asn-Ser-Tyr^10-Arg-Lys-Val-Leu-Gly^15-Gln-Leu-Ser-Ala-Arg^20-Lys-Leu-Leu-Gln-Asp^25-Ile-Met-Ser-Arg^29-NH2 [GH-RH(1-29)],potency retained relative to native GH-RH,pituitary,≥ 50%
"[Ac-Tyr^1, D-Arg^2]hGH-RH(1-29)NH2 [Standard antagonist, reference compound]",nocturnal GH secretion,"GH secretion; 400 μg/kg, normal subjects",eliminated nocturnal GH secretion
same,GH levels,GH secretion; a patient with acromegaly,reduced GH levels
same,activation of rat anterior pituitary adenylate cyclase by hGH-RH(1-29)NH2,[1],prevent the activation
same,GH response (% of control) 0 min,"[2]; antagonist 100 nM, 0 min",38 % of control
same,GH response (% of control) 30 min,"[2]; antagonist 100 nM, 30 min",98 % of control
same,GH response (% of control) 60 min,"[2]; antagonist 100 nM, 60 min",81 % of control
"CCCC[C@H](NC(=O)[C@@H](NC(=O)[C@H](CC(=O)O)NC(=O)[C@H](CCC(N)=O)NC(=O)[C@H](CC(C)C)NC(=O)[C@H](CC(C)C)NC(=O)[C@H](CCCCN)NC(=O)[C@H](CCCNC(=N)N)NC(=O)[C@H](C)NC(=O)[C@H](CO)NC(=O)[C@H](CC(C)C)NC(=O)[C@H](CCC(N)=O)NC(=O)[C@H](CC)NC(=O)[C@H](CC(C)C)NC(=O)[C@@H](NC(=O)[C@H](CCCCN)NC(=O)[C@H](CCCNC(=N)N)NC(=O)[C@H](Cc1ccc(C(=N)N)cc1)NC(=O)[C@H](CCCCNC(=N)N)NC(=O)[C@H](CC(N)=O)NC(=O)[C@@H](NC(=O)[C@H](Cc1ccc(Cl)cc1)NC(=O)[C@@H](NC(=O)[C@H](C)NC(=O)[C@H](CC(=O)O)NC(=O)[C@@H](CCCNC(=N)N)NC(=O)[C@H](Cc1ccc(O)cc1)NC(=O)Cc1ccccc1)[C@@H](C)CC)[C@@H](C)O)C(C)C)[C@@H](C)CC)C(=O)N[C@H](CCCNC(=N)N)C(=O)N[C@@H](CCCCNC(=N)N)C(N)=O [Peptide 31, [PhAc-Tyr^1, D-Arg^2, Phe(pCl)^6, Har^9, Amp^10, Abu^15, Nle^27, D-Arg^28, Har^29]hGH-RH(1-29)NH2] (PhAc-Y[dR]DAI[Phe(4-Cl)]TN[hArg][Phe(4-amidino)]RKVL[Abu]QLSARKLLQDI[Nle][dR][hArg]-NH2)",Serum IGF-I,IGF-I [3],118.4 ± 12.5 ng/mL
same,Serum IGF-I (% inhibition),IGF-I [3]; vs control,(30%)
same,Serum IGF-I,IGF-I [4],133 ± 16.7 ng/mL
same,Serum IGF-I (% inhibition),IGF-I [4]; vs control,(11%)
same,Tumor volume (mm^3) Final,"[5]; 10 μg/day s.c., 6 weeks",3329 ± 180 mm^3
same,Tumor weight,"[5]; 10 μg/day s.c., 6 weeks",1.58 ± 0.11 g
same,Tumor volume Final (% inhibition),[5]; [8],(10%)
same,Tumor weight (% inhibition),[5]; [8],(32%)
same,Tumor volume (mm^3) Initial,[5]; at start of treatment,138 ± 20 mm^3
same,Tumor IGF-II (pg/mg protein),IGF-II,130 ± 56.0 pg/mg protein
same,Tumor IGF-II (% inhibition),IGF-II; vs control,(41%)
same,Tumor volume (mm^3) Final,"[6]; 10 μg/day s.c., 28 days",363 ± 92.8 mm^3
same,Tumor volume doubling time,"[6]; 10 μg/day s.c., 28 days",14.0 ± 2.69 days
same,Tumor weight,"[6]; 10 μg/day s.c., 28 days",237 ± 53.3 mg
same,Tumor volume Final (% inhibition),[6]; [9],(28%)
same,Tumor weight (% inhibition),[6]; [9],(37%)
same,Tumor volume (mm^3) Initial,[6]; at start of treatment,49.1 ± 12.5 mm^3
same,Tumor volume (mm^3) Final,"[7]; 10 μg/day s.c., 4 weeks",832 ± 23* mm^3
same,Tumor volume Final (% inhibition),"[7]; 10 μg/day s.c., 4 weeks, vs control",(67%)
same,Tumor volume (mm^3) Initial,[7]; at start of treatment,80 ± 6 mm^3
same,level of expression of mRNA for IGF-II,mRNA for IGF-II,42.7±18.5%
same,GH response (% of control) 0 min,"[2]; antagonist 10 nM, 0 min",57 % of control
same,GH response (% of control) 30 min,"[2]; antagonist 10 nM, 30 min",31 % of control
same,GH response (% of control) 60 min,"[2]; antagonist 10 nM, 60 min",37 % of control
same,GH response (% of control) 90 min,"[2]; antagonist 10 nM, 90 min",36 % of control
same,GH response (% of control) 120 min,"[2]; antagonist 10 nM, 120 min",37 % of control
same,GH response (% of control) 0 min,"[2]; antagonist 30 nM, 1 nM hGH-RH(1-29)NH2 at 0 min",7 % of control
same,GH response (% of control) 30 min,"[2]; antagonist 30 nM, 1 nM hGH-RH(1-29)NH2 at 30 min",1 % of control
same,GH response (% of control) 60 min,"[2]; antagonist 30 nM, 1 nM hGH-RH(1-29)NH2 at 60 min",2 % of control
same,GH response (% of control) 90 min,"[2]; antagonist 30 nM, 1 nM hGH-RH(1-29)NH2 at 90 min",4 % of control
same,GH response (% of control) 120 min,"[2]; antagonist 30 nM, 1 nM hGH-RH(1-29)NH2 at 120 min",3 % of control
same,endocrine antagonistic potency: inhibition of the GH release stimulated by hGH-RH(1-29)NH2 (in words),"[2]; general statement, in vitro and in vivo",high endocrine antagonistic potencies
